Laboratory results: PubChem BioAssay (NCI)
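Dose response: 5 concentrations. Exposure: 48 h. Format: 96-well plates. Endpoint: linear interpolation; highest concentration if not reached. At the TGI there is no net growth.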

Columns and labels:
Experiment in all cases: DTP human tumour cell line panel, 48 h
[1] = system: RPMI-8226 leukemia
[2] = system: NCI/ADR-RES ovarian
[3] = system: MOLT-4 leukemia
[4] = system: OVCAR-3 ovarian
[5] = system: SR leukemia
[6] = system: HT29 colon
[7] = system: HS 578T breast
[8] = system: COLO 205 colon
[9] = system: RXF 393 renal
[10] = system: SNB-19 CNS
[11] = system: LOX IMVI melanoma
[12] = system: MCF7 breast
[13] = system: MDA-MB-231 breast
[14] = system: PC-3 prostate
[15] = system: MDA-MB-435
[16] = system: M14 melanoma
[17] = system: NCI-H460 lung
[18] = system: OVCAR-5 ovarian
[19] = system: SF-539 CNS
[20] = system: SF-295 CNS
[21] = system: A549 NSCLC
[22] = system: SNB-75 CNS
[23] = system: CCRF-CEM leukemia
[24] = system: SK-OV-3 ovarian
[25] = system: 786-0 renal
[26] = system: UO-31 renal
[27] = system: TK-10 renal
[28] = system: HOP-62 NSCLC
[29] = system: K-562 leukemia
[30] = system: SF-268 CNS
[31] = system: UACC-62 melanoma
[32] = system: NCI-H23 lung
[33] = system: MALME-3M melanoma
[34] = system: DU-145 prostate
[35] = system: NCI-H522 lung
[36] = system: ACHN renal
[37] = system: HCT-15 colon
[38] = system: U251 CNS
[39] = system: SK-MEL-5 melanoma
[40] = system: OVCAR-4 ovarian
[41] = system: SN12C renal
[42] = system: BT-549 breast
[43] = system: IGROV1 ovarian
[44] = system: HCC-2998 colon
[45] = system: SK-MEL-28 melanoma
[46] = system: T-47D breast
[47] = system: SW-620 colon
[48] = system: MDA-N
[49] = system: NCI-H226 lung
[50] = system: HCT-116 colon
[51] = system: UACC-257 melanoma
[52] = system: CAKI-1 renal
[53] = system: KM12 colon
[54] = system: SK-MEL-2 melanoma
[55] = system: HL-60(TB) leukemia
[56] = system: OVCAR-8 ovarian
[57] = system: A498 renal
[58] = system: EKVX NSCLC
[59] = system: HOP-92 NSCLC

For `COc1ccc(-c2c(C#N)c(S)n(NS(=O)(=O)c3ccccc3)c(=O)c2C#N)cc1`, the TGI [1] was 98.4 µM, the TGI [2] was > 100 µM and the TGI [3] was > 100 µM. The TGI [4] was > 100 µM, the TGI [5] was 80.3 µM and the TGI [6] was > 100 µM. For the same molecule, the TGI [7] was > 100 µM, the TGI [8] was > 100 µM and the TGI [9] was > 100 µM. For the same molecule, the TGI [10] was > 100 µM, the TGI [11] was > 100 µM and the TGI [12] was > 100 µM. The TGI [13] was > 100 µM, the TGI [14] was > 100 µM and the TGI [15] was > 100 µM. The TGI [16] was > 100 µM, the TGI [17] was > 100 µM and the TGI [18] was > 100 µM. For the same molecule, the TGI [19] was 61.6 µM, the TGI [20] was > 100 µM and the TGI [21] was > 100 µM. The TGI [22] was > 100 µM, the TGI [23] was > 100 µM and the TGI [24] was > 100 µM. The TGI [25] was > 100 µM, the TGI [26] was > 100 µM and the TGI [27] was > 100 µM. The TGI [28] was > 100 µM, the TGI [29] was > 100 µM and the TGI [30] was > 100 µM. For the same molecule, the TGI [31] was > 100 µM, the TGI [32] was > 100 µM and the TGI [33] was > 100 µM. For the same molecule, the TGI [34] was > 100 µM, the TGI [35] was 73 µM and the TGI [36] was > 100 µM. For the same molecule, the TGI [37] was > 100 µM, the TGI [38] was > 100 µM and the TGI [39] was > 100 µM. The TGI [40] was > 100 µM, the TGI [41] was > 100 µM and the TGI [42] was 46 µM. For the same molecule, the TGI [43] was > 100 µM, the TGI [44] was > 100 µM and the TGI [45] was > 100 µM. The TGI [46] was > 100 µM, the TGI [47] was > 100 µM and the TGI [48] was > 100 µM. The TGI [49] was > 100 µM, the TGI [50] was > 100 µM and the TGI [51] was > 100 µM. The TGI [52] was > 100 µM, the TGI [53] was > 100 µM and the TGI [54] was > 100 µM. For the same molecule, the TGI [55] was > 100 µM and the TGI [56] was > 100 µM.

For `COc1cccc(C2c3cc4c(cc3OC(Nc3ccccc3)C2C)OCO4)c1OC` (stereo not drawn), the TGI [1] was 17.8 µM, the TGI [57] was > 100 µM and the TGI [3] was 17.9 µM. The TGI [4] was > 100 µM, the TGI [5] was 11.2 µM and the TGI [6] was > 100 µM. For the same molecule, the TGI [7] was 61.4 µM, the TGI [8] was 19.7 µM and the TGI [9] was > 100 µM. The TGI [10] was > 100 µM, the TGI [58] was > 100 µM and the TGI [11] was > 100 µM. The TGI [12] was > 100 µM, the TGI [13] was > 100 µM and the TGI [14] was > 100 µM. The TGI [15] was > 100 µM, the TGI [16] was > 100 µM and the TGI [17] was > 100 µM. The TGI [18] was > 100 µM, the TGI [19] was > 100 µM and the TGI [20] was > 100 µM. The TGI [21] was > 100 µM, the TGI [22] was > 100 µM and the TGI [23] was 27.6 µM. For the same molecule, the TGI [59] was 60.1 µM, the TGI [24] was > 100 µM and the TGI [25] was 22.9 µM. The TGI [26] was > 100 µM, the TGI [27] was > 100 µM and the TGI [28] was > 100 µM. For the same molecule, the TGI [29] was > 100 µM, the TGI [30] was > 100 µM and the TGI [31] was > 100 µM. For the same molecule, the TGI [32] was > 100 µM, the TGI [33] was > 100 µM and the TGI [34] was > 100 µM. The TGI [35] was 95 µM, the TGI [36] was > 100 µM and the TGI [37] was > 100 µM. The TGI [38] was > 100 µM, the TGI [39] was > 100 µM and the TGI [41] was > 100 µM. The TGI [42] was > 100 µM, the TGI [43] was > 100 µM and the TGI [44] was > 100 µM. For the same molecule, the TGI [45] was > 100 µM, the TGI [46] was > 100 µM and the TGI [47] was > 100 µM. For the same molecule, the TGI [48] was > 100 µM, the TGI [49] was 12.1 µM and the TGI [50] was > 100 µM. For the same molecule, the TGI [51] was 97.3 µM, the TGI [52] was > 100 µM and the TGI [53] was > 100 µM. For the same molecule, the TGI [54] was > 100 µM, the TGI [55] was 6.26 µM and the TGI [56] was 33.1 µM.

`CC1(C)[C@@H]2C[C@H]1c1cnc(-c3ccccn3)cc1C2CCCCC[C@@H]1c2cc(-c3ccccn3)ncc2[C@@H]2C[C@H]1C2(C)C` (stereo partly drawn) was tested, and the TGI [1] was 19.6 µM, the TGI [57] was 8.92 µM and the TGI [2] was > 100 µM. The TGI [3] was > 100 µM, the TGI [4] was > 100 µM and the TGI [5] was > 100 µM. The TGI [6] was > 33.3 µM, the TGI [8] was > 32.8 µM and the TGI [9] was 45.5 µM. For the same molecule, the TGI [10] was > 100 µM, the TGI [58] was > 100 µM and the TGI [11] was 19.3 µM. For the same molecule, the TGI [12] was > 100 µM, the TGI [13] was 89 µM and the TGI [14] was > 100 µM. For the same molecule, the TGI [15] was > 100 µM, the TGI [16] was > 22.1 µM and the TGI [17] was 24.9 µM. For the same molecule, the TGI [18] was > 100 µM, the TGI [19] was 0.456 µM and the TGI [20] was 7.33 µM. The TGI [21] was > 36.7 µM, the TGI [22] was > 22.6 µM and the TGI [23] was 6.28 µM. The TGI [24] was > 100 µM, the TGI [25] was 11.5 µM and the TGI [26] was > 22.2 µM. For the same molecule, the TGI [27] was > 100 µM, the TGI [28] was > 69.2 µM and the TGI [29] was > 100 µM. For the same molecule, the TGI [30] was > 100 µM, the TGI [31] was > 34 µM and the TGI [33] was > 100 µM. The TGI [34] was > 100 µM, the TGI [35] was > 100 µM and the TGI [36] was > 100 µM. For the same molecule, the TGI [37] was > 100 µM, the TGI [38] was > 100 µM and the TGI [39] was > 38.5 µM. For the same molecule, the TGI [40] was > 100 µM, the TGI [41] was > 44.9 µM and the TGI [42] was > 100 µM. The TGI [43] was 46.1 µM, the TGI [44] was > 100 µM and the TGI [45] was > 100 µM. For the same molecule, the TGI [46] was > 100 µM, the TGI [47] was > 100 µM and the TGI [48] was 97.1 µM. For the same molecule, the TGI [49] was 7.53 µM, the TGI [50] was 31.3 µM and the TGI [52] was > 30.3 µM. For the same molecule, the TGI [53] was > 100 µM, the TGI [54] was > 88.6 µM and the TGI [55] was 5.76 µM. For the same molecule, the TGI [56] was > 100 µM.
